Source: patent US9085576B2 (AMGEN INC., priority 2013, dated 2015)

How the values were obtained:
[1] = target: Beta Secretase enzyme (BACE) (Homo sapiens (Human), UniProt P56817); test: In vitro enzymatic BACE FRET assay; type: biochemical; details: read-out: BACE1 Enzyme assay IC50
BACE = BACE (Homo sapiens (Human), UniProt P56817); test: In vitro BACE cell-based assay (Aβ40 in conditioned medium, sandwich ELISA)
Cathepsin D (Cat D) = Cathepsin D (Cat D) (Homo sapiens (Human), UniProt P07339); test: In vitro enzymatic Cathepsin D (Cat D) FRET assay; type: biochemical; details: read-out: CatD IC50
Cathepsin D (Cat D), sequence (P07339 65-412, species assumed): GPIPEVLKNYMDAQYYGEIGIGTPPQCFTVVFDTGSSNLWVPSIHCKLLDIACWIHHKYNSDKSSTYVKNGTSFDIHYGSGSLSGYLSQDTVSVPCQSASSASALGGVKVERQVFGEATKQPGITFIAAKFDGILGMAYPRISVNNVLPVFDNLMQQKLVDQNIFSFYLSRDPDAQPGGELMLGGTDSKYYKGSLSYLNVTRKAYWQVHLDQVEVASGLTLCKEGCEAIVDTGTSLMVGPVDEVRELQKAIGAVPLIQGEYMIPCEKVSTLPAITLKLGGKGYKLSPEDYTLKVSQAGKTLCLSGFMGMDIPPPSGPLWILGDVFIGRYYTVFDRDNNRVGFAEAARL

BACE, sequence (P56817 46-501, species assumed): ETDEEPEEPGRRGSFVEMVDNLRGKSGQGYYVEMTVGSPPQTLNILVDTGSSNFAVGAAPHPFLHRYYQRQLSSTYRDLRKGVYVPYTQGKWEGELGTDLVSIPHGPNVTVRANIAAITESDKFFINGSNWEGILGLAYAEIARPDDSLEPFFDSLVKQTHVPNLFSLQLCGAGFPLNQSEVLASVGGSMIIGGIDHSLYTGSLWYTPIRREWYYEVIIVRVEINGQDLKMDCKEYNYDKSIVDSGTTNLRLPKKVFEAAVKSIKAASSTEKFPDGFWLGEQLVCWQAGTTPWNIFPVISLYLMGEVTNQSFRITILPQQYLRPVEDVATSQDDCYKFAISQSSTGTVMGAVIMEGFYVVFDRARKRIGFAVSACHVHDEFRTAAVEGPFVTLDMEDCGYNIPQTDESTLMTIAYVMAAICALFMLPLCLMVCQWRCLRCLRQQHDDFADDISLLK
Beta Secretase enzyme (BACE), sequence (P56817 46-501): as the sequence (P56817 46-501, species assumed) above

Row | Structure (SMILES) | IC50 [1] [µM] | IC50 (BACE) [µM] | IC50 (Cathepsin D (Cat D)) [µM]
1 | NC1=N[C@@](c2cc(NC(=O)c3cnc(OCC(F)(F)F)cn3)ccc2F)(C(F)F)[C@H]2C[C@H]2O1 [Example 160, N-(3-((1R,5S,6R)-3-amino-5-(difluoromethyl)-2-oxa-4-azabicyclo[4.1.0]hept-3-en-5-yl)-4-fluorophenyl)-5-(2,2,2-trifluoroethoxy)pyrazine-2-carboxamide] | 0.0291 | 0.0808 | 2000
2 | CC(C)n1cc(Cl)c(C(=O)Nc2ccc(F)c([C@@]3(C(F)F)N=C(N)O[C@@H]4C[C@@H]43)c2)n1 [Example 161, N-(3-((1R,5S,6R)-3-amino-5-(difluoromethyl)-2-oxa-4-azabicyclo[4.1.0]hept-3-en-5-yl)-4-fluorophenyl)-4-chloro-1-isopropyl-1H-pyrazole-3-carboxamide] | > 40 | > 15.6 | 295
3 | NC1=N[C@](CF)(c2cc(NC(=O)c3nn(C(F)F)cc3Cl)ccc2F)[C@H]2C[C@H]2O1 [Example 164, N-(3-((1R,5S,6R)-3-amino-5-(fluoromethyl)-2-oxa-4-azabicyclo[4.1.0]hept-3-en-5-yl)-4-fluorophenyl)-4-chloro-1-(difluoromethyl)-1H-pyrazole-3-carboxamide] | 0.0232 | 0.0109 | 950
4 | NC1=N[C@@](c2cc(NC(=O)c3cnc(OCc4nccs4)cn3)ccc2F)(C(F)F)[C@H]2C[C@H]2O1 [Example 165, N-(3-((1R,5S,6R)-3-amino-5-(difluoromethyl)-2-oxa-4-azabicyclo[4.1.0]hept-3-en-5-yl)-4-fluorophenyl)-5-(thiazol-2-ylmethoxy)pyrazine-2-carboxamide] | 0.0192 | 0.0606 | 383
5 | Cc1nc(C(=O)Nc2ccc(F)c([C@@]3(C(F)F)N=C(N)O[C@@H]4C[C@@H]43)c2)co1 [Example 166, N-(3-((1R,5S,6R)-3-amino-5-(difluoromethyl)-2-oxa-4-azabicyclo[4.1.0]hept-3-en-5-yl)-4-fluorophenyl)-2-methyloxazole-4-carboxamide] | 0.0613 | 0.103 | 373
6 | NC1=N[C@@](c2cc(NC(=O)c3cnc(OCc4cscn4)cn3)ccc2F)(C(F)F)[C@H]2C[C@H]2O1 [Example 169, N-(3-((1R,5S,6R)-3-amino-5-(difluoromethyl)-2-oxa-4-azabicyclo[4.1.0]hept-3-en-5-yl)-4-fluorophenyl)-5-(thiazol-4-ylmethoxy)pyrazine-2-carboxamide] | 0.0366 | 0.0418 | 582
7 | NC1=N[C@@](c2cc(NC(=O)c3cnc(OCc4cncs4)cn3)ccc2F)(C(F)F)[C@H]2C[C@H]2O1 [Example 170, N-(3-((1R,5S,6R)-3-amino-5-(difluoromethyl)-2-oxa-4-azabicyclo[4.1.0]hept-3-en-5-yl)-4-fluorophenyl)-5-(thiazol-5-ylmethoxy)pyrazine-2-carboxamide] | 0.0867 | 0.56 | 445
8 | NC1=N[C@@](c2cc(NC(=O)c3cnc(OCc4cnco4)cn3)ccc2F)(C(F)F)[C@H]2C[C@H]2O1 [Example 171, N-(3-((1R,5S,6R)-3-amino-5-(difluoromethyl)-2-oxa-4-azabicyclo[4.1.0]hept-3-en-5-yl)-4-fluorophenyl)-5-(oxazol-5-ylmethoxy)pyrazine-2-carboxamide] | 0.0811 | 0.323 | 846
9 | NC1=N[C@@](c2cc(NC(=O)c3ccc(OCc4nccs4)cn3)ccc2F)(C(F)F)[C@H]2C[C@H]2O1 [Example 172, N-(3-((1R,5S,6R)-3-amino-5-(difluoromethyl)-2-oxa-4-azabicyclo[4.1.0]hept-3-en-5-yl)-4-fluorophenyl)-5-(thiazol-2-ylmethoxy) picolinamide] | 0.0824 | 0.446 | 360
10 | NC1=N[C@@](c2cc(NC(=O)c3ccc(OCc4ncco4)cn3)ccc2F)(C(F)F)[C@H]2C[C@H]2O1 [Example 173, N-(3-((1R,5S,6R)-3-amino-5-(difluoromethyl)-2-oxa-4-azabicyclo[4.1.0]hept-3-en-5-yl)-4-fluorophenyl)-5-(oxazol-2-ylmethoxy) picolinamide] | 0.0366 | 0.0789 | 1010
11 | Cc1csc(C(=O)Nc2ccc(F)c([C@@]3(C(F)F)N=C(N)O[C@@H]4C[C@@H]43)c2)c1 [Example 176, N-(3-((1R,5S,6R)-3-amino-5-(difluoromethyl)-2-oxa-4-azabicyclo[4.1.0]hept-3-en-5-yl)-4-fluorophenyl)-4-methylthiophene-2-carboxamide] | 0.191 | 0.156 | 835
12 | NC1=N[C@@](c2cc(NC(=O)c3cc(Cl)cs3)ccc2F)(C(F)F)[C@H]2C[C@H]2O1 [Example 177, N-(3-((1R,5S,6R)-3-amino-5-(difluoromethyl)-2-oxa-4-azabicyclo[4.1.0]hept-3-en-5-yl)-4-fluorophenyl)-4-chlorothiophene-2-carboxamide] | 0.185 | 0.373 | 762
13 | N#Cc1csc(C(=O)Nc2ccc(F)c([C@@]3(C(F)F)N=C(N)O[C@@H]4C[C@@H]43)c2)c1 [Example 178, N-(3-((1R,5S,6R)-3-amino-5-(difluoromethyl)-2-oxa-4-azabicyclo[4.1.0]hept-3-en-5-yl)-4-fluorophenyl)-4-cyanothiophene-2-carboxamide] | 1.07 | 1.56 | 534
14 | NC1=N[C@@](c2cc(NC(=O)c3ccc(Cl)s3)ccc2F)(C(F)F)[C@H]2C[C@H]2O1 [Example 179, N-(3-((1R,5S,6R)-3-amino-5-(difluoromethyl)-2-oxa-4-azabicyclo[4.1.0]hept-3-en-5-yl)-4-fluorophenyl)-5-chlorothiophene-2-carboxamide] | 0.871 | 0.661 | 474
15 | NC1=N[C@@](c2cc(NC(=O)c3ccc(OCF)cn3)ccc2F)(C(F)F)[C@H]2C[C@H]2O1 [Example 180, N-(3-((1R,5S,6R)-3-amino-5-(difluoromethyl)-2-oxa-4-azabicyclo[4.1.0]hept-3-en-5-yl)-4-fluorophenyl)-5-(fluoromethoxy) picolinamide] | 0.0918 | 0.0449 | > 1.65
16 | NC1=N[C@@](c2cc(NC(=O)c3csc(Cl)c3)ccc2F)(C(F)F)[C@H]2C[C@H]2O1 [Example 181, N-(3-((1R,5S,6R)-3-amino-5-(difluoromethyl)-2-oxa-4-azabicyclo[4.1.0]hept-3-en-5-yl)-4-fluorophenyl)-5-chlorothiophene-3-carboxamide] | 1.4 | 1.14 | 580
17 | CS(=O)(=O)c1ccc(C(=O)Nc2ccc(F)c([C@@]3(C(F)F)N=C(N)O[C@@H]4C[C@@H]43)c2)nc1 [Example 182, N-(3-((1R,5S,6R)-3-amino-5-(difluoromethyl)-2-oxa-4-azabicyclo[4.1.0]hept-3-en-5-yl)-4-fluorophenyl)-5-(methylsulfonyl) picolinamide] | 13.1 | 3.36 | 565
18 | NC1=N[C@](CF)(c2cc(NC(=O)c3ccc(OCF)cn3)ccc2Cl)[C@H]2C[C@H]2O1 [Example 183, N-(3-((1R,5S,6R)-3-amino-5-(fluoromethyl)-2-oxa-4-azabicyclo[4.1.0]hept-3-en-5-yl)-4-chlorophenyl)-5-(fluoromethoxy) picolinamide] | 0.0998 | 0.0218 | 882
